Reference: patent US12168059B2, “Trimeric peptides for antisense delivery” (Sarepta Therapeutics, Inc., priority 2018, dated 2024)
Where no end group is shown, it is not given here.

Tested on: HeLa-654 cells
Experiment: HeLa-654 eGFP assay (flow cytometry: mean fluorescence, gated cell count, F×C)
Format: cell-based, human
Protocol: With the 36 constructs synthesized, the ability to modulate PMO activity using the modified HeLa cell assay was tested. The HeLa-654 cells were stably transfected to express a nonfluorescent eGFP protein. The eGFP gene is interrupted by a mutant intron from the human β-globin gene (IVS2-654). The insertion alters pre-mRNA splicing to cause retention of a fragment in the mature mRNA that results in a nonfluorescent protein. PMO IVS2-654 base-pairs with the β-globin insertion, modifies mRNA splicing, and thereby leads to expression of fluorescent eGFP.
For treatment, the crude reaction mixture was diluted to 5 μM in media. The concentration of the modular construct was calculated based on the original concentration of the module 1-2 conjugate mixed in the reaction. Using media containing 10% fetal bovine serum (FBS), the cells were treated with each construct for 22 hours, after which the cellular fluorescence was measured by flow cytometry.
The different modules led to several noticeable trends in the level of cellular fluorescence (FIG. 4). When module 2 was DPV6, the overall construct consistently led to high fluorescence, regardless of which peptides were placed in module 3 and 4. However, when either pVEC or TP10 was placed in module 2, minor cellular fluorescence was observed. […]

Row | Substance | cell viability, in words (low micromolar concentrations of copper in cell culture) | activity relative to PMO by itself (single peptide conjugated to PMO on its own)
1 | copper | did not affect cell viability | 
2 | W/R: W/R peptide (RRWWRRWRR) conjugated to PMO on its own (also: conjugated to PMO (position not given here)) |  | around 3 ×
